Data: US20230165969A1, “PHARMACEUTICAL COMPOSITION COMPRISING ANTIBODY DRUG CONJUGATE AND USE THEREOF” (priority 2020, published 2023)

Test system: trastuzumab (Herceptin)-resistant human breast cancer cell strain JIMT-1 xenograft tumor
Experiment: Drug efficacy on JIMT-1 tumor-bearing mice
Format: in vivo, nu/nu nude mice
Conditions: 10 mg/kg, two intraperitoneal injections, observation for 34 days
Description: The tumor volumes and body weights were measured twice a week and the results were recorded.

Substance: T-DM1
- tumor inhibition rate: no inhibition effect on tumors
